Data taken from ChEMBL document CHEMBL1125635, “Effect of hydroxyl group configuration in hydroxyethylamine dipeptide isosteres on HIV protease inhibition. Evidence for multiple binding modes” (J Med Chem, 1991).

How the values were obtained:
[1] = target: T1, Human immunodeficiency virus type 1 protease (Human immunodeficiency virus 1, UniProt Q72874); assay: In vitro concentration required to inhibit 50% activity of HIV protease was measured (exp 2); format: functional
[2] = target: T1, Human immunodeficiency virus type 1 protease; assay: In vitro concentration required to inhibit 50% activity of HIV protease was measured; format: functional
[3] = target: T1, Human immunodeficiency virus type 1 protease; assay: In vitro binding affinity against HIV protease was measured

SMILES	IC50 [1]	IC50 [2]	Ki [3]
CC(C)(C)OC(=O)[C@@H]1CCCN1C[C@@H](O)[C@H](Cc1ccccc1)NC(=O)[C@H](CC(N)=O)NC(=O)OCc1ccccc1	300 nM	450 nM	–
CC[C@H](C)[C@H](NC(=O)[C@@H]1CCCN1C[C@H](O)[C@H](Cc1ccccc1)NC(=O)[C@H](CC(N)=O)NC(=O)OCc1ccccc1)C(=O)N[C@@H](Cc1ccccc1)C(=O)OC	–	4 nM	–
CC[C@H](C)[C@H](NC(=O)[C@@H]1CCCN1C[C@H](O)[C@H](Cc1ccccc1)NC(=O)[C@H](CC(N)=O)NC(=O)[C@H](CC(C)C)NC(=O)[C@H](CO)NC(C)=O)C(=O)N[C@H](C(=O)OC)C(C)C (stereo in doubt; 1S)	–	3.4 nM	0.24 nM
CC(=O)N[C@@H](CO)C(=O)N[C@@H](CC(C)C)C(=O)N[C@@H](CC(N)=O)C(=O)N[C@@H](Cc1ccccc1)[C@H](O)CN1CCC[C@H]1C(=O)OC(C)(C)C	–	14 nM	–
CC[C@H](C)[C@H](NC(=O)[C@@H]1CCCN1C[C@@H](O)[C@H](Cc1ccccc1)NC(=O)[C@H](CC(N)=O)NC(=O)OC(C)(C)C)C(=O)N[C@H](C(=O)OC)C(C)C	–	850 nM	–
CC[C@H](C)[C@H](NC(=O)[C@@H]1CCCN1C[C@H](O)[C@H](Cc1ccccc1)NC(=O)[C@H](CC(N)=O)NC(=O)OC(C)(C)C)C(=O)N[C@H](C(=O)OC)C(C)C	–	16 nM	–
CC(C)(C)OC(=O)[C@@H]1CCCN1C[C@H](O)[C@H](Cc1ccccc1)NC(=O)[C@H](CC(N)=O)NC(=O)OCc1ccccc1	140 nM	51 nM	–
CC(=O)N[C@@H](CO)C(=O)N[C@@H](CC(C)C)C(=O)N[C@@H](CC(N)=O)C(=O)N[C@@H](Cc1ccccc1)[C@@H](O)CN1CCC[C@H]1C(=O)OC(C)(C)C	–	14 nM	–
CC[C@H](C)[C@H](NC(=O)[C@@H]1CCCN1C[C@H](O)[C@H](Cc1ccccc1)NC(=O)[C@H](CC(N)=O)NC(=O)c1ccc2ccccc2n1)C(=O)N[C@@H](Cc1ccccc1)C(=O)OC	–	2.3 nM	–
CC[C@H](C)[C@H](NC(=O)[C@@H]1CCCN1CC(O)[C@H](Cc1ccccc1)NC(=O)[C@H](CC(N)=O)NC(=O)[C@H](CC(C)C)NC(=O)[C@H](CO)NC(C)=O)C(=O)N[C@H](C(=O)OC)C(C)C (mixture of isomers)	–	9 nM	0.6 nM
CC[C@H](C)[C@H](NC(=O)[C@@H]1CCCN1C[C@H](O)[C@H](Cc1ccccc1)NC(=O)[C@H](CC(N)=O)NC(=O)[C@H](CC(C)C)NC(=O)[C@H](CO)NC(C)=O)C(=O)N[C@H](C(=O)OC)C(C)C (stereo in doubt; 1R)	–	65 nM	20 nM
